# Laboratory results: the supplement of paper PMC11208160
# Test: recombinant UMI read abundance after kanamycin selection (control-corrected) (log10(CPM+1)); higher = more efficient recombination; extreme values may be limits of the assay; sequences stand for … in AGTGCAGAGAAAATCGGCCAGTTTTCTCTGCCTGCAGTCCGCATGCCGTGGGACCCCTTGGGTTCTAACCTGTTGCCTAGATTTATGCAGCGGACTGCCTTTCTCCCAAAGTGATAAACCGG…AGGTTGGTTTCACT; site = the 11-nt donor
# Method in brief: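 Under IPTG (0.07 mM) plus kanamycin, or without selection, Escherichia coli carrying a UMI-tagged donor and donor-binding-loop pair library and a target plasmid for the IS621 bridge recombinase were plated in two replicates. Recombinant UMIs were PCR-amplified across the donor–target junction and sequenced. Counts were converted to CPM, averaged over replicates, scaled by control-derived factors and reported as log10(CPM+1).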
# 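Also: IS621 bridge recombinase in Escherichia coli cells against a fixed T5 target plasmid.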
row,Sequence,recombinant UMI read abundance (log10)
1,GCTACGGCATGGACCGGTTTTCCCGGTAATCCGTATTTGCC (site GCTACTGCTGG),0
2,CGGGCACCATGGACCGGTTTTCCCGGTAATCCGTATTTGCA (site GGGGCACCTTG),0.00963
3,GGATAGACATGGACCGGTTTTCCCGGTAATCCGTATTTGAC (site GGATAGACTGG),1.9
4,ACGACTTCATGGACCGGTTTTCCCGGTAATCCGTATTTGTT (site ACGACTTCTAA),1.23
5,CTCCTAACATGGACCGGTTTTCCCGGTAATCCGTATTTGGA (site CTCCTAACTTC),0.655
6,GAACGGCCATGGACCGGTTTTCCCGGTAATCCGTATTTGCA (site GAATGGCCTTG),0
7,GGAAATCCATGGACCGGTTTTCCCGGTAATCCGTATTTGGT (site GGAAATCCTAC),0
8,CTCAGATCATGGACCGGTTTTCCCGGTAATCCGTATTTGCA (site CTCAGATCTTG),1.82
9,GTGCATGCATGGACCGGTTTTCCCGGTAATCCGTATTTGGT (site GTGCGTGCTAC),0.276
10,ACTAGGGCATGGACCGGTTTTCCCGGTAATCCGTATTTGGT (site ACTAGAGCTAC),1.2
11,CAATGCTCATGGACCGGTTTTCCCGGTAATCCGTATTTGAG (site CAATGCTCTTT),0.812
12,CAGCACGCATGGACCGGTTTTCCCGGTAATCCGTATTTGAT (site CAGCACGCTAT),2.39
13,CGGTCATCATGGACCGGTTTTCCCGGTAATCCGTATTTGCA (site CGGTCATCTTG),0.39
14,GGCAATCCATGGACCGGTTTTCCCGGTAATCCGTATTTGAT (site GGCAATCCTGT),0
15,GTTTCGGCATGGACCGGTTTTCCCGGTAATCCGTATTTGGG (site CGGGGCACTAA),0.0198
16,CAAGTCGCATGGACCGGTTTTCCCGGTAATCCGTATTTGGG (site CAAGTCGCTCC),0.908
17,GGCATTCCATGGACCGGTTTTCCCGGTAATCCGTATTTGAA (site GGCAGTCCTTT),0.00406
18,TATTTGGCATGGACCGGTTTTCCCGGTAATCCGTATTTGTG (site TATTTGGCTCC),0.0133
19,ACTAGAACATGGACCGGTTTTCCCGGTAATCCGTATTTGAG (site ACTTGAACTCT),0.118
20,GGATAGACATGGACCGGTTTTCCCGGTAATCCGTATTTGTC (site GGATAGACTGG),2.1
21,ACCGTATCATGGACCGGTTTTCCCGGTAATCCGTATTTGGA (site ACAGTATCTTG),0.692
22,TAGGAATCATGGACCGGTTTTCCCGGTAATCCGTATTTGCG (site TAGTAATCTCG),1.71
23,CAGAAGACATGGACCGGTTTTCCCGGTAATCCGTATTTGCA (site AGGAAGACTTG),0.401
24,GAACTTACATGGACCGGTTTTCCCGGTAATCCGTATTTGCG (site GAACTTACTCG),1.85
25,TAGGAATCATGGACCGGTTTTCCCGGTAATCCGTATTTGAG (site TAGGAATCTCC),1.84

row,Sequence,recombinant UMI read abundance (log10)
1,TAGCCTTCATGGACCGGTTTTCCCGGTAATCCGTATTTGGT (site TAGCCTTCTGC),0
2,CTTGGAACATGGACCGGTTTTCCCGGTAATCCGTATTTGTT (site CATGGAACTAA),0.791
3,TATTTGGCATGGACCGGTTTTCCCGGTAATCCGTATTTGCG (site TATTTGGCTCG),0.0194
4,ACTTGCCCATGGACCGGTTTTCCCGGTAATCCGTATTTGAT (site TCTTGCCCTAT),0.0192
5,GGTCGGACATGGACCGGTTTTCCCGGTAATCCGTATTTGCG (site GGTCGGACTCG),1.29
6,TCATACTCATGGACCGGTTTTCCCGGTAATCCGTATTTGCA (site TCAAACTCTTG),1.19
7,GTATGCACATGGACCGGTTTTCCCGGTAATCCGTATTTGTA (site GAATGCACTTA),0.0229
8,TTGTCACCATGGACCGGTTTTCCCGGTAATCCGTATTTGTG (site TTGTCACCTCA),0.0196
9,CCAGGTGCATGGACCGGTTTTCCCGGTAATCCGTATTTGCT (site CCAGGTGCTAT),0.402
10,ATGTAGGCATGGACCGGTTTTCCCGGTAATCCGTATTTGGC (site ATGTAGGCTGG),2.41
11,GACCAACCATGGACCGGTTTTCCCGGTAATCCGTATTTGGT (site GACCAACCTAC),0.0426
12,TCCCACACATGGACCGGTTTTCCCGGTAATCCGTATTTGTA (site GCCCACACTTA),0.0195
13,TAGGCAACATGGACCGGTTTTCCCGGTAATCCGTATTTGAA (site TAGGCAACTTT),0.0147
14,AGTCCAACATGGACCGGTTTTCCCGGTAATCCGTATTTGTA (site TGTCCAACTTA),0.141
15,TACTGGACATGGACCGGTTTTCCCGGTAATCCGTATTTGCT (site TACTAGACTAG),0.948
16,GTCGAATCATGGACCGGTTTTCCCGGTAATCCGTATTTGGT (site GTCGAATCTAC),2.07
17,TTCCAAGCATGGACCGGTTTTCCCGGTAATCCGTATTTGAG (site ATCCAAGCTCT),0
18,CGAGAACCATGGACCGGTTTTCCCGGTAATCCGTATTTGGG (site CGAGTACCTCC),0.00635
19,TATTCCCCATGGACCGGTTTTCCCGGTAATCCGTATTTGTA (site TCTTCCCCTTA),0.207
20,CTGGCAACATGGACCGGTTTTCCCGGTAATCCGTATTTGCA (site CTGGGAACTTG),0
21,CATAACCCATGGACCGGTTTTCCCGGTAATCCGTATTTGAT (site CATAACCCTAT),1.19
22,CCGTTGTCATGGACCGGTTTTCCCGGTAATCCGTATTTGTC (site CCGTTGTCTGA),0
23,TGTTCCCCATGGACCGGTTTTCCCGGTAATCCGTATTTGTA (site TGTTCCCCTCA),0.0333
24,GATTTGCCATGGACCGGTTTTCCCGGTAATCCGTATTTGGA (site GATTTGCCTTC),0.0059
25,CGCCACACATGGACCGGTTTTCCCGGTAATCCGTATTTGTA (site CGCCACACTTA),1.95

row,Sequence,recombinant UMI read abundance (log10)
1,ACACATCCATGGACCGGTTTTCCCGGTAATCCGTATTTGAC (site ACCCATCCTGT),0
2,CTAGGTACATGGACCGGTTTTCCCGGTAATCCGTATTTGAC (site CTAGGTACTGT),2.1
3,GGCTAGTCATGGACCGGTTTTCCCGGTAATCCGTATTTGAC (site GGCTAGTCTGT),0
4,CTCGTTACATGGACCGGTTTTCCCGGTAATCCGTATTTGTG (site CTCGTTACTCA),0.783
5,CGGAAATCATGGACCGGTTTTCCCGGTAATCCGTATTTGCT (site CGGACATCTAG),0.293
6,TGTACGCCATGGACCGGTTTTCCCGGTAATCCGTATTTGTA (site TGTACGCCTTA),0.00598
7,CATGCCTCATGGACCGGTTTTCCCGGTAATCCGTATTTGTG (site CATGCCTCTCA),1.43
8,TGGACACCATGGACCGGTTTTCCCGGTAATCCGTATTTGAC (site TGAACACCTGT),0
9,GGACTGGCATGGACCGGTTTTCCCGGTAATCCGTATTTGGT (site GGAGTGGCTAC),0.0324
10,TACTTGACATGGACCGGTTTTCCCGGTAATCCGTATTTGTG (site TACTTGACTCA),0.00608
11,CTAGTATCATGGACCGGTTTTCCCGGTAATCCGTATTTGAA (site CTAGTATCTGT),1.91
12,TCATACCCATGGACCGGTTTTCCCGGTAATCCGTATTTGCA (site TCATACCCTTG),0.0304
13,ACAAGTCCATGGACCGGTTTTCCCGGTAATCCGTATTTGTC (site ACAAGTCCTGA),0
14,GAGCATGCATGGACCGGTTTTCCCGGTAATCCGTATTTGGT (site GGGCATGCTAC),0.422
15,TGTCTTGCATGGACCGGTTTTCCCGGTAATCCGTATTTGGG (site TGTCTTGCTCC),0.016
16,GCGACAACATGGACCGGTTTTCCCGGTAATCCGTATTTGGT (site GCGACAACTAC),2.46
17,GAGACTACATGGACCGGTTTTCCCGGTAATCCGTATTTGAA (site GAGACTACTTT),0.551
18,ACCTAGACATGGACCGGTTTTCCCGGTAATCCGTATTTGGA (site ACCTAGACTAC),0
19,GACGAACCATGGACCGGTTTTCCCGGTAATCCGTATTTGGT (site GACGAACCTAC),0
20,CCCGGGCCATGGACCGGTTTTCCCGGTAATCCGTATTTGCA (site CCCGGGCCTTG),0
21,GCAGGTACATGGACCGGTTTTCCCGGTAATCCGTATTTGAC (site GGAGGTACTGT),0
22,CCTGGAACATGGACCGGTTTTCCCGGTAATCCGTATTTGTT (site CCTGGAACTAA),0.00583
23,ACGAAGACATGGACCGGTTTTCCCGGTAATCCGTATTTGCG (site AGGAAGACTTG),0
24,CTCAATCCATGGACCGGTTTTCCCGGTAATCCGTATTTGTT (site CGGAATCCTAA),0
25,CACCTGGCATGGACCGGTTTTCCCGGTAATCCGTATTTGGA (site CACCTGGCTTC),0.595
